Assay results as given in patent publication EP4678638A1, “NEW E3 UBIQUITIN LIGASE LIGAND, PROTEIN DEGRADATION AGENT AND USE THEREOF” (priority 2023, dated 2024).
Read-outs that look alike come from different tables or passages of the source.

Assays:
MM.1R = test: CCK-8 proliferation, MM.1R; type: cell-based; settings: CCK-8, 72 hours, read-out: Inhibitory activity (IC50) on tumor cell proliferation, MM.1R
Description: (§1) The tumor cells used herein were cultured in a cell culture medium listed in table A1 at 37°C in an incubator with 5% CO2. Prior to experimentation, all cell lines used were correctly identified by STR profiling, and tested negative for mycoplasma contamination using a mycoplasma detection kit through routine screenings. Table A1. Tumor cells and cell culture medium used in the present disclosure
(§2) IC50 values of the compounds of the present disclosure (including the compounds in Table 1, and compounds of examples) were measured using the Meilun Cell Counting Kit-8 kit from Dalian Meilun Biotech Co., Ltd. Assay details are as follows: tumor cells were seeded in a 96-well plate at a density listed in Table A2. After 24h, 100 µL of the inoculated cells were treated with 0.5µL of the compounds of the present disclosure (including the compounds in Tables 1 and 2, and compounds of examples) at 10 different successively decreasing concentrations (starting at the highest concentration of 10µM; 5-fold serial dilutions). After the cells were treated with the compounds of the present disclosure for a period of time, the cell viability detection reagent was added to the culture medium for cell viability assessment according to the instructions provided with the CCK-8 kit. […] The growth inhibition of the compounds of the present disclosure on cells was plotted by Prism Graphpad software, and the IC50 values of the compounds of the present disclosure were calculated therefrom. […] Seeding protocol and treatment time for tumor cells

SW620 = test: CCK-8 proliferation, SW620; type: cell-based; settings: Homo sapiens, SW-620; CCK-8; 96 hours; read-out: Inhibitory activity (IC50) on tumor cell proliferation, SW620
Summary of the method: (§3)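 CCK-8 viability readout; IC50 from growth-inhibition curve fitting. Cells plated, dosed 24h later with a 10-point series, top 10µM, 5-fold steps. Culture at 37°C, 5% CO2.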

CCRF-CEM = test: CCK-8 proliferation, CCRF-CEM; type: cell-based, Human; settings: Homo sapiens, CCRF-CEM; CCK-8; 96 hours; read-out: Inhibitory activity (IC50) on tumor cell proliferation, CCRF-CEM
Summary of the method: as §3

Jurkat = test: CCK-8 proliferation, Jurkat; type: cell-based, Human; settings: Homo sapiens, Jurkat; CCK-8; 96 hours; read-out: Inhibitory activity (IC50) on tumor cell proliferation, Jurkat
Summary of the method: as §3

[1] = target: T1, human Cereblon WT GST-tagged protein (Homo sapiens, UniProt Q96SW2); test: CRBN binding, HTRF (CEREBLON BINDING kit); settings: Table II-2, CRBN binding screening, HTRF
T1 construct: purchased CISBIO 64BDCRBNPEH
T1 sequence (Q96SW2 whole entry): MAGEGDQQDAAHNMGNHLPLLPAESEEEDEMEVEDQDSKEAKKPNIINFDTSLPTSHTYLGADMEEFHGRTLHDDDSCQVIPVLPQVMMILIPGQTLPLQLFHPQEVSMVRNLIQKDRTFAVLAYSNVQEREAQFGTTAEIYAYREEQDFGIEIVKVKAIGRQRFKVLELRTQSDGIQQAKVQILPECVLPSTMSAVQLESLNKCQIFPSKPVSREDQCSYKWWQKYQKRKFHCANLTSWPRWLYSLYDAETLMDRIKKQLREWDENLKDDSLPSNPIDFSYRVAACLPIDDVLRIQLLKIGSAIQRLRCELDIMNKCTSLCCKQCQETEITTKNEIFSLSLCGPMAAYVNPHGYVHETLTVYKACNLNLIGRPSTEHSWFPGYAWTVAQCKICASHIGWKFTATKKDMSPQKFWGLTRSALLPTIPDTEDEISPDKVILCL
Summary of the method: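 Competitive HTRF: GST-tagged human WT Cereblon mixed with compound, Thalidomide-Re tracer and GST Eu antibody, incubated 3 h at room temperature. Signals read at 620 and 665 nm.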

H1975 = test: CCK-8 proliferation, NCI-H1975 (H1975); type: cell-based, Human; settings: Homo sapiens, read-out: Inhibitory activity (IC50) on tumor cell proliferation, H1975
Summary of the method: as §3

PC-9 = test: CCK-8 proliferation, PC-9; type: cell-based, Human; settings: Homo sapiens, PC-9; CCK-8; 96 hours; read-out: Inhibitory activity (IC50) on tumor cell proliferation, PC-9
Summary of the method: as §3

H2228 = test: CCK-8 proliferation, NCI-H2228 (H2228); type: cell-based; settings: Homo sapiens, NCI-H2228; CCK-8; 96 hours; read-out: Inhibitory activity (IC50) on tumor cell proliferation, H2228
Summary of the method: as §3

22RV1 = test: CCK-8 proliferation, 22RV1; type: cell-based; settings: Homo sapiens, 96 hours, read-out: Inhibitory activity (IC50) on tumor cell proliferation, 22RV1
Description: as §1, §2

MM.1S = test: CCK-8 proliferation, MM.1S; type: cell-based; settings: Homo sapiens, MM1.S; CCK-8; 72 hours; read-out: Inhibitory activity (IC50) on tumor cell proliferation, MM1S
Summary of the method: as §3

MCF7 = test: CCK-8 proliferation, MCF7 (MCF-7); type: cell-based; settings: Homo sapiens, MCF7; CCK-8; read-out: Inhibitory activity (IC50) on tumor cell proliferation, MCF7
Summary of the method: as §3

SR = test: CCK-8 proliferation, SR; type: cell-based, Human; settings: Homo sapiens, SR; CCK-8; 72 hours; read-out: Inhibitory activity (IC50) on tumor cell proliferation, SR
Summary of the method: as §3

Kasumi-1 = test: CCK-8 proliferation, Kasumi-1; type: cell-based, Human; settings: Homo sapiens, Kasumi 1, 72 hours, read-out: Inhibitory activity (IC50) on tumor cell proliferation, Kasumi-1
Description: as §1, §2

MV-4-11 = test: CCK-8 proliferation, MV-4-11; type: cell-based, Human; settings: Homo sapiens, MV4-11; CCK-8; 72 or 96 hours; read-out: Inhibitory activity (IC50) on tumor cell proliferation, MV-4-11
Summary of the method: as §3

| Structure (SMILES) | IC50 (MM.1R) [nM] | IC50 (SW620) [nM] | IC50 (CCRF-CEM) [nM] | IC50 (Jurkat) [nM] | inhibition at 0.5 µM ([1]; at 0.5µM, read-out: Inhibition rate (%) at 0.5µM) [%] | inhibition at 2 µM ([1]; at 2 µM, read-out: Inhibition rate (%) at 2 µM) [%] | IC50 (H1975; NCI-H1975, CCK-8, 96 hours) [nM] | IC50 (PC-9) [nM] | IC50 (H2228) [nM] | IC50 (22RV1) [nM] | IC50 (MM.1S) [nM] | IC50 (MCF7) [nM] | IC50 (SR) [nM] | IC50 (Kasumi-1) [nM] | IC50 (MV-4-11) [nM] | IC50 (H1975; NCI-H1975, 96 h) [nM] |
| --- | --- | --- | --- | --- | --- | --- | --- | --- | --- | --- | --- | --- | --- | --- | --- | --- |
| COc1cc(C(=O)NC2CCN(Cc3cccc(N4CCC(=O)NC4=O)c3)CC2)c(F)cc1Nc1ncc(C(F)(F)F)c(Oc2cccc3c2C(=O)N(C)C3)n1 [GT-04257, N-(1-(3-(2,4-dioxotetrahydropyrimidin-1(2H)-yl)benzyl)piperidin-4-yl)-2-fluoro-5-methoxy-4-((4-((2-methyl-3-oxoisoindolin-4-yl)oxy)-5-(trifluoromethyl)pyrimidin-2-yl)amino)benzamide] | 100 to 500 | 500 to 1000 | 100 to 500 | 100 to 500 | 60 to 80 | 80 to 100 | – | – | – | – | – | – | – | – | – | – |
| Cc1nc2c(F)cc(-c3nc(Nc4ccc(N5CCC(N6CCN(Cc7cc(N8CCC(=O)NC8=O)ncc7F)CC6)CC5)cn4)ncc3F)cc2n1C(C)C [GT-07486, 1-(5-fluoro-4-((4-(1-(6-((5-fluoro-4-(4-fluoro-1-isopropyl-2-methyl-1H-benzo[d]imidazol-6-yl)pyrimidin-2-yl)amino)pyridin-3-yl)piperidin-4-yl)piperazin-1-yl)methyl)pyridin-2-yl)dihydropyrimidine-2,4(1H,3H)-dione] | – | – | 100 to 500 | – | – | – | 50 to 100 | – | – | 10 to 50 | 50 to 100 | 50 to 100 | – | – | – | – |
| CCN1CCN(Cc2ccc(Nc3ncc(F)c(-c4cc(F)c5nc(C)n(C(C)C)c5c4)n3)nc2)CC1 [abemaciclib, reference compound] | – | – | 1000 to 5000 | – | – | – | – | – | – | 10 to 50 | 1000 to 5000 | 1000 to 5000 | 500 to 1000 | 500 to 1000 | 50 to 100 | 1000 to 5000 |

More lines, main results first:

| IC50 (MM.1R) [nM] | IC50 (SW620) [nM] | IC50 (CCRF-CEM) [nM] | IC50 (Jurkat) [nM] | inhibition at 0.5 µM ([1]; at 0.5µM, read-out: Inhibition rate (%) at 0.5µM) [%] | inhibition at 2 µM ([1]; at 2 µM, read-out: Inhibition rate (%) at 2 µM) [%] | IC50 (H1975; NCI-H1975, CCK-8, 96 hours) [nM] | IC50 (PC-9) [nM] | IC50 (H2228) [nM] | IC50 (22RV1) [nM] | IC50 (MM.1S) [nM] | IC50 (MCF7) [nM] | Structure (SMILES) | IC50 (SR) [nM] | IC50 (Kasumi-1) [nM] | IC50 (MV-4-11) [nM] | IC50 (H1975; NCI-H1975, 96 h) [nM] |
| --- | --- | --- | --- | --- | --- | --- | --- | --- | --- | --- | --- | --- | --- | --- | --- | --- |
| 100 to 500 | 100 to 500 | – | – | – | – | 500 to 1000 | 100 to 500 | 100 to 500 | – | – | – | CN1CCN([C@@H]2CCCN(c3cnc(C(N)=O)c(Nc4ccc(C5CCN(Cc6ccc(N7CCC(=O)NC7=O)cc6F)CC5)cc4)n3)C2)C1=O [GT-04803, (R)-3-((4-(1-(4-(2,4-dioxotetrahydropyrimidin-1(2H)-yl)-2-fluorobenzyl)piperidin-4-yl)phenyl)amino)-5-(3-(3-methyl-2-oxoimidazolidin-1-yl)piperidin-1-yl)pyrazine-2-carboxamide] | – | – | – | – |
| – | – | 50 to 100 | – | – | – | 100 to 500 | – | – | 10 to 50 | 100 to 500 | 10 to 50 | Cc1nc2c(F)cc(-c3nc(Nc4ccc(N5CCC(N6CCN(Cc7ccc(N8CCC(=O)NC8=O)nc7)CC6)CC5)cn4)ncc3F)cc2n1C(C)C [GT-06742, 1-(5-((4-(1-(6-((5-fluoro-4-(4-fluoro-1-isopropyl-2-methyl-1H-benzo[d]imidazol-6-yl)pyrimidin-2-yl)amino)pyridin-3-yl)piperidin-4-yl)piperazin-1-yl)methyl)pyridin-2-yl)dihydropyrimidine-2,4(1H,3H)-dione] | 10 to 50 | 100 to 500 | 10 to 50 | – |
